Results: patent US20220372099A1 (priority 2019, published 2022)
Values belong to the compound of their own block, whether it stands above or below them.

Columns and labels:
[1] = test system: Polycythemia vera; test: Phase 2 study in patients with phlebotomy-requiring Polycythemia vera; conditions: 10-80 mg SC weekly
[2] = plasma concentrations of Compound A in PV patients; format: in vivo, human; conditions: SC doses of 10 mg to 80 mg, various times after dosing
Experimental: Plasma concentrations of Compound A were measured at various times after dosing of subcutaneous doses of 10 mg to 80 mg in PV patients. The concentrations increased in a dose-dependent manner and varied based on dose and time of sampling. Compound A concentrations ranged from below detectable (<2 ng/mL) to 866 ng/mL (FIGS. 17A and 17B).

[3] = Phase I single dose study in healthy subjects; format: in vivo, human; conditions: 62 healthy subjects
Description: Compound A is a hepcidin mimetic agent in clinical studies for multiple blood disorders.

[4] = test system: erythropoietic activity; test: repeat-dose study, 13 weekly SC doses with 35-day recovery, limiting erythropoiesis; format: in vivo, Cynomolgus monkeys
Description: A cohort of animals (4/sex/group) were sacrificed on Day 92 (Main), and the remaining animals (2/sex/group) were sacrificed on Day 120 following a 35-day recovery period (Recovery).

[5] = test system: erythropoietic activity; test: repeat-dose study, 4 weekly SC doses with 28-day recovery, limiting erythropoiesis; conditions: SC weekly x4
[6] = test system: Polycythemia vera; conditions: through week 32 (portal vein thrombosis); 6 events with BAT; cited from earlier work
[7] = test system: serum iron; test: PK-PD experiment, serum iron (Cobas Iron2 colorimetric assay); format: in vivo, Cynomolgus monkeys; conditions: 2.93 mg/kg SC
Experimental: Iron content in plasma/serum was measured using a colorimetric assay on the Cobas c 111 according to instructions from the manufacturer of the assay (assay: IRON2: ACN 661).

[8] = test system: Polycythemia vera; conditions: PV mice expressing the orthologous JAK2 mutation; cited from earlier work

grade of most of the injection site reactions [1]: 1-2 grade | leukocyte count over the course of treatment [1]: remained generally steady | platelet counts over the course of treatment [1]: remained generally steady | plasma concentrations of Compound A, ranged from below detectable (<2 ng/mL) up to [2]: ≤ 866 ng/mL | dose with hematopoietic hypercellularity in bone marrow, extramedullary hematopoiesis and hemosiderin deposition in liver and spleen ([4]; SC weekly x13): ≥ 2 mg/kg/dose | dose with increased organ weight (liver and spleen) ([4]; SC weekly x13): 6 mg/kg/dose | dose with increase in total bilirubin (tBili) ([4]; during the treatment period): ≥ 2 mg/kg/day | dose with significantly elevated levels of platelets ([4]; male and female animals): 6 mg/kg/dose | dose causing pharmacology-mediated anemia (dose- and time-dependent decreases in Hct and Hgb) [5]: ≥ 3 mg/kg/dose
Compound: CCCCCCCCCCCCCCCC(=O)N[C@@H](CCC(=O)NCCCC[C@@H]1NC(=O)[C@H]([C@@H](C)CC)NC(=O)[C@@H](NC(=O)[C@@H]2CCCN2C(=O)[C@H](Cc2ccccc2)NC(=O)[C@H](Cc2c[nH]cn2)NC(=O)[C@@H](NC(=O)[C@H](CC(=O)O)NC(=O)CC(C)C)[C@@H](C)O)CSSC[C@@H](C(=O)N[C@@H](CCCCN)C(N)=O)NC(=O)CNC(=O)[C@H](CCCCN)NC(=O)[C@H](CO)NC(=O)[C@H](CCCNC(=N)N)NC(=O)[C@@H]2CCCN2C(=O)[C@H](CCC(=O)O)NC(=O)[C@H](Cc2ccccc2)NC1=O)C(=O)O [Compound A]
most frequent adverse events [1]: injection site reaction (ISR) reported by three patients | tolerability [1]: well tolerated | adverse events [3]: without significant adverse events

Compound: N#CC[C@H](C1CCCC1)n1cc(-c2ncnc3[nH]ccc23)cn1 [ruxolitinib]
thromboembolic events [6]: 1 event

Compound: Isovaleric acid-DTHFPCIKF(K(PEG11-Palm))PRSK[Sar]CK-NH2 [Compound B]
time of maximal serum iron reduction [7]: about 12 hour | serum iron lower than the pre-dose levels (maximal reduction) ([7]; about 12 hour post administration): 12 fold

Compound: minihepcidin: hepcidin mimetic administered to PV mice in Casu et al., Blood 2016; not further defined (DTHFPICIF)
hematocrit [8]: normalizes hematocrit | splenomegaly [8]: significantly reduces splenomegaly
